Test results: patent US7473711B2, “Androgen modulators” (Pfizer Inc., priority 2004, dated 2009)

Test system: sebum production
Experiment: Animal model for inhibition of sebum production (hamster ear, HPLC of sebum lipids)
Format: in vivo, male Syrian hamsters
Conditions: 4 weeks; for Sum CE + WE: sum of CE and WE reductions; for % Reduction in CE / % Reduction in WE: five days a week; for % Reduction in CE: cholesterol ester vs vehicle control; for % Reduction in WE: wax ester vs vehicle control
Protocol: Animal Model for Inhibition of Sebum Production
Luderschmidt et al describes an animal model for testing whether compounds are capable of modulating sebum secretion. Arch. Derm. Res. 258, 185-191 (1977). This model uses male Syrian hamsters, whose ears contain sebaceous glands. The products of Examples 24, 27 and 28 were screened in this model.
Testing for sebum inhibition was carried out in the following manner. Male Syrian hamsters aged 9 to 10 weeks were introduced into the laboratory environment and acclimated for 2 weeks prior to use in the study. Each group consisted of 5 animals and run in parallel with vehicle and positive controls. Prior to administration, a sufficient quantity each compound was dissolved in 1 mL of a solvent consisting of transcutanol, ethanol, and propylene glycol (20/60/20% v/v) to achieve a final concentration of 0.5 w/v % or 3.0 w/v %.
Animals were dosed topically twice daily, five days a week, for 4 weeks. Each dose consisted of 25 micro liters of vehicle control or drug. The dose was applied to the ventral surfaces of both the right and left ears. All animals were sacrificed approximately 18-24 hours after the final dose. The right ears were collected from each animal and used for sebum analysis.
The ears were prepped for HPLC analysis in the following manner. One 8 mm distal biopsy punch was taken, just above the anatomical “V” mark in the ear to normalize the sample area. The punch was pulled apart. The ventral biopsy surface (the area where the topical dose was directly applied to the sebaceous glands) was retained for testing and the dorsal surface of the biopsy punch was discarded.
Tissue samples were blown with N2 gas and stored at −80° C. under nitrogen until HPLC analysis. In addition to ear samples, an aliquot of each drug and vehicle (at least 250 ul) was also stored at −80° C. for inclusion in the HPLC analysis.
HPLC analysis was carried out on an extract of the tissue sample. Tissue samples were contacted with 3 ml of solvent (a 4:1 admixture of 2,2,4-trimethylpentane and isopropyl alcohol). The mixture was shaken for 15 minutes and stored overnight at room temperature, protected from light. The next morning 1 milliliter of water was added to the sample and shaken for 15 minutes. The sample was then centrifuged at approximately 1500 rpm for 15 minutes. Two ml of the organic phase (top layer) was transferred to a glass vial, dried at 37° C., under nitrogen, for approximately 1 hour, and then lyophilized for approximately 48 hours. The samples were then removed from the lyophilizer and each vial was reconstituted with 600 μl of solvent A (trimethylpentane/tetrahydrofuran (99:1). The samples were then recapped and vortexed for 5 minutes.
200 μl of each sample was then transferred to a pre-labeled 200 μl HPLC vial with 200 μL glass inserts. The HPLC vials were placed in the autosampler tray for the Agilent 1100 series HPLC unit. The Agilent 1100 HPLC system consisted of a thermostated autosampler, a quarternary pump, a column heater, and an A/D interface module. All components were controlled by Agilent ChemStation software. A Waters Spherisorb S3W 4.6×100 mm analytical column was maintained at 30° C. by the Agilent column heater unit. The HPLC autosampler was programmed to maintain the sample temperature at 20 C throughout the run.
10 uL of each sample was injected in triplicate into the column. Two solvents were used for the solvent gradient. Solvent A was an admixture of trimethylpentane and tetrahydrofuran (99:1). Solvent B was ethylacetate. The gradient utilized is described in the table below: […]
The Sedex 75 Evaporative Light Scattering Detector (ELSD) was operated at 45° C. with a gain of 5, and N2 pressure maintained at 3.1 bar. Analog signal obtained by the instrument was sent to the Agilent A/D interface module where it was converted to a digital output. The conversion was based on a 10000 mAU/volt set point and the data rate was set at 10 Hz (0.03 min). […]

[1] = 0.5 w/v % topical twice daily, negative = increase in sebum

Compound: N#Cc1ccc(OCCCCCOc2ccc(C#N)c(C(F)(F)F)c2)cc1C(F)(F)F [Example 24]
- Sum CE + WE (0.5 w/v % topical twice daily): −74
- % Reduction in CE [1]: −33%
- % Reduction in WE [1]: −41%

Compound: COCC(COc1ccccc1)Oc1ccc(C#N)c(C(F)(F)F)c1 (stereo not drawn) [Example 27, 4-(1-Methoxymethyl-2-phenoxy-ethoxy)-2-trifluoromethyl-benzonitrile]
- Sum CE + WE (3 w/v % topical twice daily): 147
- % Reduction in CE (3 w/v % topical twice daily): 63%
- % Reduction in WE (3 w/v % topical twice daily): 84%

Compound: N#Cc1ccc(OC(CO)COc2ccccc2)cc1C(F)(F)F (stereo not drawn) [Example 28, 4-(1-Hydroxymethyl-2-phenoxy-ethoxy)-2-trifluoromethyl-benzonitrile]
- Sum CE + WE (3 w/v % topical twice daily): 40
- % Reduction in CE (3 w/v % topical twice daily): 11%
- % Reduction in WE (3 w/v % topical twice daily): 19%
